Test results: PMC12655172, “Borylated 5-Membered Ring Iminosugars: Synthesis and Biological Evaluation for Glycosidase Inhibition and Anticancer Properties for Application in Boron Neutron Capture Therapy (BNCT)—Part 2” (Pharmaceuticals, 2025)
Where two headings read alike, the source gives them in different places.

Key:
α-D-glucosidase (yeast) = molecular target: T1, α-D-glucosidase (yeast) (Saccharomyces cerevisiae, UniProt P53341); test: Glycosidase inhibition (Table 3 panel); type: biochemical; settings: 1 mg/mL aqueous solution, run in water; for inhibition at 1000 µg/mL (stock): read-out: Percentage inhibition α-D-Glucosidase Yeast
T1 construct: purchased Sigma-Aldrich
Protocol: All enzymes and para-nitrophenyl substrates were purchased from Sigma. Enzymes were assayed at 27 °C in citric acid (0.1 M)/disodium hydrogen phosphate (0.2 M) buffers at the optimum pH for the enzyme. The incubation mixture consisted of […] of 1 mg/mL aqueous solution of extract and […] of the appropriate 5 μM para-nitrophenyl substrate made up in buffer at the optimum pH for the enzyme. […] Assays were carried out in triplicate, and the values given are means of the three replicates per assay. All reactions were run in water.

β-D-glucosidase (almond) = test: Glycosidase inhibition (Table 3 panel); type: biochemical; settings: 1 mg/mL aqueous solution; run in water
Protocol: (§1) All enzymes and para-nitrophenyl substrates were purchased from Sigma. Enzymes were assayed at 27 °C in citric acid (0.1 M)/disodium hydrogen phosphate (0.2 M) buffers at the optimum pH for the enzyme. The incubation mixture consisted of […] of 1 mg/mL aqueous solution of extract and […] of the appropriate […] para-nitrophenyl substrate made up in buffer at the optimum pH for the enzyme. The reactions were stopped by addition of […] 0.4 M glycine (pH 10.4) during the exponential phase of the reaction, which had been determined at the beginning using uninhibited assays in which water replaced the inhibitor. Final absorbances were read at 405 nm using a Versamax microplate reader (Molecular Devices, Wokingham, UK). Assays were carried out in triplicate, and the values given are means of the three replicates per assay. All reactions were run in water.

[1] = system: β-D-glucuronidase (bovine liver); test: Glycosidase inhibition (Table 3 panel); type: biochemical; settings: 1 mg/mL aqueous solution; run in water
Protocol: as §1

[2] = Sample appearance on sample preparation in water; type: physicochemical; settings: 1 mL of water was added to 1 mg solid
[3] = system: A2780 (ovarian carcinoma); test: Cancer screening, MTT growth inhibition; type: cell-based; settings: for inhibition at 25 µM: A2780, 25 µM of drug, read-out: DOSE SCREEN percentage (%) cell growth inhibition A2780 Ovarian; for GI50: read-out: DOSE RESPONSE GI50 A2780 Ovarian; for DOSE SCREEN percentage (%) cell growth inhibition A2780 Ovarian: 25 µM of drug
Protocol: (§2) For Table 4, all test agents were prepared as stock solutions ([…]) in dimethyl sulfoxide (DMSO) and stored at −20 °C. Cell lines used in the study included HT29 (colorectal carcinoma), A2780 (ovarian carcinoma), H460 (lung carcinoma), A431 (skin carcinoma), MiaPaCa-2 (pancreatic carcinoma), and SMA560 (spontaneous murine astrocytoma), together with MCF10A (non-tumour derived normal breast cell line). Cell line sources: the HT29, H460, and MiaPaCa-2, together with MCF10A were purchased from ATCC. The A2780 and A431 were purchased from the European Collection of Cell Culture (ECACC). All cell lines were incubated in a humidified atmosphere 5% CO2 at 37 °C. The cancer cell lines were maintained in Dulbecco’s modified Eagle’s medium (DMEM; Sigma, Truganina, Australia) supplemented with foetal bovine serum (10%), sodium pyruvate ([…]), penicillin (100 IUmL^−1), streptomycin (100 µg mL^−1), and L-glutamine ([…]).
(§3) Growth inhibition was determined by plating cells in duplicate in medium (100 µL) at a density of 2500–4000 cells per well in 96-well plates. On day 0 (24 h after plating), when the cells are in logarithmic growth, medium (100 µL) with or without the test agent was added to each well. […] Each data point is the mean ± the standard error of the mean (SEM) calculated from three replicates which were performed on separate occasions and separate cell line passages.

A431 (skin carcinoma) = test: Cancer screening, MTT growth inhibition; type: cell-based; settings: for inhibition at 25 µM: A-431, 25 µM of drug, read-out: DOSE SCREEN percentage (%) cell growth inhibition A431 Skin; for GI50: read-out: DOSE RESPONSE GI50 A431 Skin; for DOSE SCREEN percentage (%) cell growth inhibition A431 Skin: 25 µM of drug
Protocol: as §2, §3

H460 (lung carcinoma) = test: Cancer screening, MTT growth inhibition; type: cell-based; settings: for inhibition at 25 µM: NCI-H460, 25 µM of drug, read-out: DOSE SCREEN percentage (%) cell growth inhibition H460 Lung; for GI50: read-out: DOSE RESPONSE GI50 H460 Lung; for DOSE SCREEN percentage (%) cell growth inhibition H460 Lung: 25 µM of drug
Protocol: as §2, §3

[4] = system: HT29 (colorectal carcinoma); test: Cancer screening, MTT growth inhibition; type: cell-based; settings: for inhibition at 25 µM: HT-29, 25 µM of drug, read-out: DOSE SCREEN percentage (%) cell growth inhibition HT29 Colon; for GI50: read-out: DOSE RESPONSE GI50 HT29 Colon; for DOSE SCREEN percentage (%) cell growth inhibition HT29 Colon: 25 µM of drug
Protocol: as §2, §3

[5] = system: MIA-Pa-Ca2 (pancreatic carcinoma); test: Cancer screening, MTT growth inhibition; type: cell-based; settings: for inhibition at 25 µM: MIA PaCa-2, 25 µM of drug, read-out: DOSE SCREEN percentage (%) cell growth inhibition MIA-Pa-Ca2 Pancreatic; for GI50: read-out: DOSE RESPONSE GI50 MIA-Pa-Ca2 Pancreatic; for DOSE SCREEN percentage (%) cell growth inhibition MIA-Pa-Ca2 Pancreatic: 25 µM of drug
Protocol: as §2, §3

[6] = system: MCF10A (non-tumour derived normal breast cell line); test: Cancer screening, MTT growth inhibition; type: cell-based; settings: 72 h; for inhibition at 25 µM / DOSE SCREEN percentage (%) cell growth inhibition MCF10A Breast (normal): 25 µM of drug; for inhibition at 25 µM: read-out: DOSE SCREEN percentage (%) cell growth inhibition MCF10A Breast (normal); for GI50: read-out: DOSE RESPONSE GI50 MCF10A Breast (normal)

T1 sequence (P53341 whole entry): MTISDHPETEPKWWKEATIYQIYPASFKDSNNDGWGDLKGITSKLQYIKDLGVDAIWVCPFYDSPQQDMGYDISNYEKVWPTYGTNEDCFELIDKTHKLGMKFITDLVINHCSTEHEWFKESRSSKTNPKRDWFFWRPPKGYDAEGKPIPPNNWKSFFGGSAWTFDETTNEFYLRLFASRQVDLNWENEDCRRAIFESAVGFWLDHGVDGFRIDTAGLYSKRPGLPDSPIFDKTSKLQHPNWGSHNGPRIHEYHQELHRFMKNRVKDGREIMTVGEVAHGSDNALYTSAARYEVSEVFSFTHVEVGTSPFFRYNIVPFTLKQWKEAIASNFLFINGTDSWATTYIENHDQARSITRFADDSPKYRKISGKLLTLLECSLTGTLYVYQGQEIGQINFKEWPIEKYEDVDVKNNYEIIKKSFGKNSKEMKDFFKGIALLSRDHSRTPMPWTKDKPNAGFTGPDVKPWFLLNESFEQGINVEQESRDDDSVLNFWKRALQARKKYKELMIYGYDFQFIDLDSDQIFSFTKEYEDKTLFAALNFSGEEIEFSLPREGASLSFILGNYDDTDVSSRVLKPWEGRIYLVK

| Compound | inhibition at 1000 µg/mL (stock) (α-D-glucosidase (yeast)) | Percentage inhibition β-D-Glucosidase Almond (β-D-glucosidase (almond)) | Percentage inhibition β-D-Glucuronidase Bovine Liver [1] | Sample Appearance [2] | inhibition at 25 µM ([3]; Homo sapiens, 72 h) | GI50 ([3]; Homo sapiens, A2780, 72 h) | inhibition at 25 µM (A431 (skin carcinoma); Homo sapiens, 72 h) | GI50 (A431 (skin carcinoma); Homo sapiens, A-431, 72 h) | inhibition at 25 µM (H460 (lung carcinoma); Homo sapiens, 72 h) | GI50 (H460 (lung carcinoma); Homo sapiens, NCI-H460, 72 h) | inhibition at 25 µM ([4]; Homo sapiens, 72 h) | GI50 ([4]; Homo sapiens, HT-29, 72 h) | inhibition at 25 µM ([5]; Homo sapiens, 72 h) | GI50 ([5]; Homo sapiens, MIA PaCa-2, 72 h) | inhibition at 25 µM ([6]; Homo sapiens, MCF-10A) | GI50 ([6]; Homo sapiens, MCF-10A) | Percentage inhibition α-D-Glucosidase Yeast (α-D-glucosidase (yeast)) | DOSE SCREEN percentage (%) cell growth inhibition A2780 Ovarian ([3]; 72 h) | DOSE SCREEN percentage (%) cell growth inhibition A431 Skin (A431 (skin carcinoma); 72 h) | DOSE SCREEN percentage (%) cell growth inhibition H460 Lung (H460 (lung carcinoma); 72 h) | also measured |
| --- | --- | --- | --- | --- | --- | --- | --- | --- | --- | --- | --- | --- | --- | --- | --- | --- | --- | --- | --- | --- | --- |
| OC[C@H](O)[C@@H]1[C@H](O)[C@H](O)CN1Cc1ccccc1B(O)O [ortho 4, N-(2-Methylphenylboronic acid)-1,4-dideoxy-1,4-imino-L-gulitol] | -6.7% | 49.8% | 2.2% | In solution | 16 ± 8% | > 50 µM | 17 ± 2% | > 50 µM | 8 ± 2% | > 50 µM | < 0% | > 50 µM | 7 ± 2% | > 50 µM | 8 ± 4% | > 50 µM | – | – | – | – | – |
| CC1(C)O[C@H]2O[C@H]3[C@@H]([C@H]2O1)N(Cc1ccccc1B(O)O)C[C@H]3O [ortho 5] | 8.7% | 8.7% | 1.4% | In solution | 19 ± 2% | > 50 µM | 9 ± 4% | > 50 µM | 2 ± 2% | > 50 µM | 4 ± 4% | > 50 µM | 12 ± 3% | > 50 µM | 7 ± 6% | > 50 µM | 11% | – | – | – | – |
| Borocaptate sodium [BSH, reference compound] | – | 47.3% | 31.6% | In solution | – | – | – | – | – | – | – | – | – | – | – | – | 59% | * 2 ± 5% | * <0% | * 8 ± 2% | DOSE SCREEN percentage (%) cell growth inhibition HT29 Colon ([4]; 72 h): * 3 ± 2%; DOSE SCREEN percentage (%) cell growth inhibition MIA-Pa-Ca2 Pancreatic ([5]; 72 h): * 2 ± 6%; DOSE SCREEN percentage (%) cell growth inhibition MCF10A Breast (normal) [6]: * 8 ± 3% |
| N-(3-Hydroxyphenyl)-1,4-dideoxy-1,4-imino-L-gulitol [meta 7] | – | 2.9% | −3% | In solution | – | – | – | – | – | – | – | – | – | – | – | – | 19.5% | 48 ± 7% | 56 ± 6% | 37 ± 3% | GI50 ([3]; 72 h): 30 ± 20 µM; GI50 (A431 (skin carcinoma); 72 h): 17 ± 8.5 µM; GI50 (H460 (lung carcinoma); 72 h): 47 ± 7 µM; DOSE SCREEN percentage (%) cell growth inhibition HT29 Colon ([4]; 72 h): 29 ± 1%; GI50 ([4]; 72 h): 50 µM; DOSE SCREEN percentage (%) cell growth inhibition MIA-Pa-Ca2 Pancreatic ([5]; 72 h): 39 ± 2%; GI50 ([5]; 72 h): 51 ± 1.5 µM; DOSE SCREEN percentage (%) cell growth inhibition MCF10A Breast (normal) [6]: 31 ± 16%; GI50 [6]: 43 ± 17 µM |
